Data: ChEMBL document CHEMBL2413030, “Multimerized CHR-derived peptides as HIV-1 fusion inhibitors” (Bioorg Med Chem, 2013)
Square brackets hold non-standard residues; d marks the D form. Nle = CCCC[C@H](N)C(=O)O

What was measured:
[1] = Cytotoxicity against human TZM-bl cells by MTS assay; assay type: cell-based
[2] = tested on: Human immunodeficiency virus 1; assay: Antiviral activity against HIV1 NL4-3 assessed as inhibition of viral fusion with human TZM-bl cells after 48 hrs by steady glo luciferase reporter gene assay; assay type: functional, organism-based; settings: Human immunodeficiency virus 1, NL4-3, TZM-bl

Substance | CC50 [1] [nM] | IC50 [2] [nM]
H-W[Nle]EWDRKIEEYTKKIEELIKKSQEQQEKNEKELKREREREG-OH | > 5000 | 1.82
enfuvirtide | > 5000 | 45.2
